These results are taken from article PMC4177916, “Characterization of the Sterol and Phosphatidylinositol 4-Phosphate Binding Properties of Golgi-Associated OSBP-Related Protein 9 (ORP9)” (PLoS ONE, 2014).

What all share (assay type): binding
The target of one test is T1, ORP9S (Homo sapiens, UniProt Q96SU4).
T1 construct: gene OSBPL9; short variant lacking N-terminal PH domain, His-tagged
T1 sequence (Q96SU4 100-736 limits assumed): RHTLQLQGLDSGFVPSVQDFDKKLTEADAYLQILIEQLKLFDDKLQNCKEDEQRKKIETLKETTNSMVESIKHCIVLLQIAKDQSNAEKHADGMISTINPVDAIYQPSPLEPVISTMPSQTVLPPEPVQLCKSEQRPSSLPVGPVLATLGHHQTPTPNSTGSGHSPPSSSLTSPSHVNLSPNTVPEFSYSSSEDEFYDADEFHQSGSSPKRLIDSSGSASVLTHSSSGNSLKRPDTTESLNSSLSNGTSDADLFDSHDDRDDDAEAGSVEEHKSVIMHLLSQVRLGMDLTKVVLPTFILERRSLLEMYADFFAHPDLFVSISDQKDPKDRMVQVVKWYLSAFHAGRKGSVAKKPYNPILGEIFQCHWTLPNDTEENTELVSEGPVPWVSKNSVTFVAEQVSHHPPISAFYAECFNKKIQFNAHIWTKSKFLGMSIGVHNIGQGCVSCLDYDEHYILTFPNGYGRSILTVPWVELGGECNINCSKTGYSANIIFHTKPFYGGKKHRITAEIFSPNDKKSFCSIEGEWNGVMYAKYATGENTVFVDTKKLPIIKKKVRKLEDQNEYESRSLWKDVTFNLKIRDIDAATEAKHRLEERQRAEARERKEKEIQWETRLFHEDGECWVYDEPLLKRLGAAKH
Kind of test: […]PI-4P extraction from liposomes, sedimentation. The conditions noted are these: pH 7.4, 25 °C, 20 min; 0.1 mM liposomes with 0.5 mol% PI-4P; labelled compound.

Test [1] has as its target T2, ORP9L (Homo sapiens, UniProt Q96SU4).
T2 construct: gene OSBPL9; full-length long variant, C-terminal V5-His tag (stated for the HH/AA mutant)
T2 sequence (Q96SU4 2-736): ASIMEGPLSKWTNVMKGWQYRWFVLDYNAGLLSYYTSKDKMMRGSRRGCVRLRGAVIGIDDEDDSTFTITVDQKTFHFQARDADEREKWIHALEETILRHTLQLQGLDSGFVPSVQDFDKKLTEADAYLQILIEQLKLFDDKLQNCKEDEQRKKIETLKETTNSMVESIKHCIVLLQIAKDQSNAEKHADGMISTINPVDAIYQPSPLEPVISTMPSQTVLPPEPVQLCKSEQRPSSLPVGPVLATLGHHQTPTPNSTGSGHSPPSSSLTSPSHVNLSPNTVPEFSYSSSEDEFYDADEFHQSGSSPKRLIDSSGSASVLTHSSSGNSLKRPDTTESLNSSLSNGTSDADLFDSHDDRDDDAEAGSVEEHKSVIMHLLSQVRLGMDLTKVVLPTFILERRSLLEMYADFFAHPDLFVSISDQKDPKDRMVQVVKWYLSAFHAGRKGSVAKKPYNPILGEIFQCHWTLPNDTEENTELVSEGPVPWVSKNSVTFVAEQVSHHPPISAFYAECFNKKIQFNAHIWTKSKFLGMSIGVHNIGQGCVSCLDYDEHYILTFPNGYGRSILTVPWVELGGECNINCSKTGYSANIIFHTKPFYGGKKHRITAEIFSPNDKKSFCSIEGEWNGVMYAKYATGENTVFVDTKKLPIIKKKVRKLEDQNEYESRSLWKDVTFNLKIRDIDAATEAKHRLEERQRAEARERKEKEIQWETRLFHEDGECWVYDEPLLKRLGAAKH
Described as above. The conditions noted are these: pH 7.4, 25 °C, 20 min; 0.1 mM liposomes with 0.5 mol% PI-4P; labelled compound.

For test [2], the target named is T3, ORP9L (Homo sapiens, UniProt Q96SU4, H501A/H502A, form not given).
T3 construct: gene OSBPL9; full-length long variant, C-terminal V5-His tag (stated for the HH/AA mutant)
T3 sequence (Q96SU4 2-736 H501A/H502A): T2 sequence (Q96SU4 2-736) with H500A, H501A
Described as above. The conditions noted are these: 100 pmol protein; pH 7.4, 25 °C, 20 min; labelled compound.

The target in test [3] is T2, ORP9L. Kind of test: inhibition of CTL extraction from liposomes (FRET). The conditions noted are these: equimolar cholesterol and CTL (2.5 mol% each); pH 7.4, 30 °C.
The next test addresses T4, Osh6 (Saccharomyces cerevisiae, UniProt Q02201).
T4 construct: hexahistidine-SUMO3-tagged, expressed in bacteria
T4 sequence (Q02201 1-448): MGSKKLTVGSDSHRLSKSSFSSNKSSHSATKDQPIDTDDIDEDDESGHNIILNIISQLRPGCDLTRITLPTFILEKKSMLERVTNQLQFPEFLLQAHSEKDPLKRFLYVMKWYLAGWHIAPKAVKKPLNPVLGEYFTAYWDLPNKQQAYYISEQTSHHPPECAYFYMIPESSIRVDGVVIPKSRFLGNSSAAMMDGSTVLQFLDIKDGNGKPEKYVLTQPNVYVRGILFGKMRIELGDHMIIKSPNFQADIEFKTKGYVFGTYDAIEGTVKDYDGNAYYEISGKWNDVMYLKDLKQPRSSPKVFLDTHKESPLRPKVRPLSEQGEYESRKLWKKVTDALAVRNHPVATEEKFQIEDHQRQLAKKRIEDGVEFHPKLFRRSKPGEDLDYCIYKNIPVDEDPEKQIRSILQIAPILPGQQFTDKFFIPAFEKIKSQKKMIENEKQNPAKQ
The experiment in a line: [3H]PS extraction from liposomes, sedimentation. The conditions noted are these: 100 pmol protein; pH 7.4, 25 °C, 20 min; labelled compound.

Where a chain is given by its changes, count along the chain named. A value given as a limit tells only on which side of the number the result lay.

PI-4P: the “% extraction” value on ORP9S is on record as 14%. In addition, the “% maximal extraction” value on ORP9L [1] is 9%. Also, on ORP9L [2], the “% reduction of extraction versus wild type” value is given as over 75%. Take `CC(C)CCC[C@@H](C)[C@H]1CC[C@H]2[C@@H]3CC=C4C[C@@H](O)CC[C@]4(C)[C@H]3CC[C@]12C` [cholesterol]: the “% inhibition of CTL extraction” value on ORP9L [3] was 50%. phosphatidylserine: the “% extraction” value on Osh6 was ~ 2%.
